Laboratory results from ChEMBL document CHEMBL1144947, “L-Serine and glycine based ceramide analogues as transdermal permeation enhancers: polar head size and hydrogen bonding” (2003).

How the values were obtained:
Homo sapiens [1] = organism: Homo sapiens; assay: Enhancement ratio in theophylline permeation through human skin from isopropyl myristate (IPM) suspension (in vitro); type: functional
Homo sapiens [2] = organism: Homo sapiens; assay: Enhancement ratio in theophylline permeation through human skin from water (in vitro); type: functional

Row | Compound | ER (Homo sapiens [1]) | ER (Homo sapiens [2])
1 | CCCCCCCCCCCCN1CCCCCC1=O [LAUROCAPRAM] | 0.6 | 2.5
2 | CCCCCCCCCCCCOC(=O)C(CO)NC(=O)C(CO)NC(=O)CCCCCCCCCCC (centres undefined) | 1.07 | 1.26
3 | CCCCCCCCCCCCOC(=O)C(CO)NC(=O)C(O)C(O)C(=O)OCCCCCCCCCCC (centres undefined) | 1.45 | 1.39
4 | CCCCCCCCCCCCOC(=O)CNC(=O)CNC(=O)CCCCCCCCCCC | 1.09 | 2.28
5 | CCCCCCCC/C=C/CCCCCCCC(=O)NC(CO)C(=O)OCCCCCCCCCCCC (centres undefined) | 1.49 | 1.26
6 | CCCCCCCCCCCCOC(=O)C(CO)NC(=O)CCCCCCCCCCC (centres undefined) | 1.21 | 2.74
7 | CCCCCCCCCCCCOC(=O)CNC(=O)CCCCCCCCCCC | 1.11 | 12.5
